Drawing on patent US6369080B2, “Selective factor Xa inhibitors” (COR Therapeutics, Inc., priority 1996, dated 2002), this text covers IC50 for one compound.

The target in this assay is T1, thrombin (Homo sapiens, UniProt P00734).
T1 construct: converts the zymogen prothrombin into the active procoagulant thrombin
Nature of the assay: Thrombin amidolytic assay (chromogenic substrate Chromozym TH). It counts as biochemical. Particulars: room temperature, pH 7.5, 5 minutes preincubation. As to the method:
The compounds of the present invention are first dissolved in a buffer to give solutions containing concentrations such that assay concentrations range from 0-100 μM. In assays for thrombin, prothrombinase and factor Xa, a synthetic chromogenic substrate would be added to a solution containing a test compound and the enzyme of interest and the residual catalytic activity of that enzyme would then be determined spectrophotometrically.
The IC50 of a compound is determined from the substrate turnover. The IC50 is the concentration of test compound giving 50% inhibition of the substrate turnover.
Factor Xa and thrombin assays are performed at room temperature, in 0.02 M Tris HCl buffer, pH 7.5, containing 0.15 M NaCl. The rates of hydrolysis of the paranitroanilide substrate S-2765 (Chromogenix) for factor Xa, and the substrate Chromozym TH (Boehringer Mannheim) for thrombin following preincubation of the enzyme with the test compound for 5 minutes at room temperature are determined using a Softmax 96-well plate reader (Molecular Devices), monitored at 405 nm to measure the time dependent appearance of p-nitroanilide.

By IC50 is commonly meant the concentration needed to halve the response being measured. Read a low IC50 as greater potency. In turn, `N=C(N)NCCC[C@H](NC(=O)Cn1cccc(NS(=O)(=O)Cc2ccccc2)c1=O)C(=O)c1nccs1` [Example 9] yielded an IC50 of 8 nM.
